Experimental findings from paper PMC11940309, “Endocrine-Disrupting Activities of Flavones on Steroid Receptors: Structural Requirements and Synthesis of Novel Flavone with Improved Estrogenic Activity” (Biomedicines, 2025) are described below.

Structures are written as SMILES. pEC50: −log10 of the molar value. Several values for one entry are separate records, joined by “and”; a condition that tells them apart may be missing. Equal values may be shown once. Read-outs that look alike come from different tables or passages of the source.

For one experiment, the system named is estrogen receptor (ER). Put plainly: ER-mediated luciferase reporter induction in T47D KBluc cells. In kind it is cell-based, human. Conditions: for % ER Induction: relative to 1nM estradiol. The procedure:
Experiments testing the effect of flavonoids on estrogen receptor-mediated transcription employed T47D KBluc cells. These cells were maintained in RPMI medium with 10% FBS, penicillin (100 U/mL), and streptomycin (100 μg/mL). For reporter gene experiments, cells were detached as above and replated at 50% confluency in phenol red-free RPMI media with 10% charcoal-stripped FBS and antibiotics (day one). All subsequent steps used phenol red-free medium and trypsin. On day three, the medium was replaced with fresh medium. On day five, cells were washed with PBSE, detached, resuspended, diluted, and replated in the phenol red-free RPMI with charcoal-stripped serum (50,000 cells per well as above).
(§1) For all cell lines, cell harvesting and the luminescence assay for alkaline phosphatase and/or luciferase were performed as previously described in detail. Each condition was performed in quadruplicate. […] Percent inhibition is 100 minus the percent induction.

The target of a further experiment is T1, human AR (Homo sapiens, UniProt P10275).
T1 construct: expressed in transfected cells; host or cells: HeLa13 (HeLa 13)
T1 sequence (P10275 1-920): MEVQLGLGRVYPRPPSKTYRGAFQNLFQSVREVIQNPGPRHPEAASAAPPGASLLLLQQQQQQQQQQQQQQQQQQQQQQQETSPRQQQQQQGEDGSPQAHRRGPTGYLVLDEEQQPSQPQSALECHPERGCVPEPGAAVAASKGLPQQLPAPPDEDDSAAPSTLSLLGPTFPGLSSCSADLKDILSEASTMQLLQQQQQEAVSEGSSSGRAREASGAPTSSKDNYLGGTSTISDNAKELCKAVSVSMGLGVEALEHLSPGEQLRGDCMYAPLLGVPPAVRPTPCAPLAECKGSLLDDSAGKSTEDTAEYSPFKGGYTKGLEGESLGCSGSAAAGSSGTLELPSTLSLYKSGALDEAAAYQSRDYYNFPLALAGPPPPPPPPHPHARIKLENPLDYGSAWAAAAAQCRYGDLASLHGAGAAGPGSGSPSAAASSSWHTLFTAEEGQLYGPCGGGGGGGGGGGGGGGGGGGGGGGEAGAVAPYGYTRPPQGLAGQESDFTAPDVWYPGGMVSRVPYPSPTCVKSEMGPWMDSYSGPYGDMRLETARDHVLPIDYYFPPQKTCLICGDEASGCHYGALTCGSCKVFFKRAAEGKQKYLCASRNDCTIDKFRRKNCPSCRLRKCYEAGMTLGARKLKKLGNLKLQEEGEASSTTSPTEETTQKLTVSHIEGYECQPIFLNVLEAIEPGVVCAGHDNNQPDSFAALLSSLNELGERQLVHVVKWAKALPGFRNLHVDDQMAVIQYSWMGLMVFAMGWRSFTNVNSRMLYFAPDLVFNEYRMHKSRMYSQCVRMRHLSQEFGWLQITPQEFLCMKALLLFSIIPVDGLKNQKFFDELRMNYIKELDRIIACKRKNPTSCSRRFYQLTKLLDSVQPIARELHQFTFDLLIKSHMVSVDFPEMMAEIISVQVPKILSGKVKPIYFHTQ
As to the kind of experiment: AR-mediated induction of PSA-luciferase reporter by R1881 in HeLa13 cells. In kind it is cell-based. Conditions: for inhibition at 1 µM / inhibition at 4 µM: read-out: % Inhibition of AR-Mediated Gene Induction.
Description: (§2) The engineered T47D breast cancer cell lines employed for the assessment of flavonoid activity on glucocorticoid receptor (GR) and progesterone receptor (PR) signaling permitted the facile quantitation transcription of both an endogenous gene and a stably integrated reporter gene. […] The T47D K5pLuc cell line responds to progestins via induction of a stably integrated cytokeratin 5-luciferase reporter gene. […] For assessment of the effect of the test compounds on androgen receptor (AR) signaling, we used the HeLa13 cell line engineered to stably express human AR and a PSA-luciferase reporter gene containing a 4× multimerized PSA upstream enhancer ARE1 linked to the E4 TATA box and luciferase gene.
Experiments testing the effect of flavonoid on androgen receptor-mediated transcription employed HeLa 13 cells maintained in MEM medium supplemented with 10% FBS, 0.5 mg/mL G418, 0.05 mg/mL Hygromycin B, […], and streptomycin (100 μg/mL). For reporter gene experiments, cells were replated at a 1:5 dilution in MEM medium with 5% charcoal-stripped FBS and the antibiotics mentioned above. The medium was changed the next day. After 48 h, the cells were washed with PBSE, detached with phenol red-free trypsin, pelleted, resuspended and plated in 96 well plates as above. Hormone and flavonoid treatments were performed as described above with the HeLa 13 medium and charcoal-stripped FBS. When treated with hormone, the synthetic androgen, R1881, was used at 1.0 nM. Hormone treatment was for 20 h at which time cells were harvested for assay of luciferase.
as §1

Experiment [1] addresses T2, progesterone receptor (PR) (Homo sapiens, UniProt P06401).
T2 sequence (P06401 679-933 limits assumed): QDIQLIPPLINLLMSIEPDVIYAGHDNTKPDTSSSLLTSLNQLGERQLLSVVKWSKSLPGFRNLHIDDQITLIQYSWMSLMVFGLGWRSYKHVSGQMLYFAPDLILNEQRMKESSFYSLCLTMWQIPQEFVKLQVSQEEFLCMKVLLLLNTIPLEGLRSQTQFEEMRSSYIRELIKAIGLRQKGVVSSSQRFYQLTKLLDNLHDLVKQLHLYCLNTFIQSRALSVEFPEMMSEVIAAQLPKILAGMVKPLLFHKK
As to the kind of experiment: PR-mediated induction of transcription by R5020 in T47D K5pLuc cells (luciferase reporter and endogenous alkaline phosphatase). In kind it is cell-based. The note with it: T47D, R5020 1.0 nM.
Description: as §2
Experiments testing the effect of flavonoids on progesterone receptor-mediated transcription employed T47D K5pluc cells. The protocol was the same as that for T47D (A1-2) cells except the medium was Dulbecco’s Modified Eagle’s Medium supplemented with 10% FBS, insulin (10 nM), puromycin 200 ng/mL, nonessential amino acids, penicillin (100 U/mL), and streptomycin (100 μg/mL). When treated with hormone, the synthetic progestin, R5020, was used at 1.0 nM. Hormone treatment was for 20 h at which time cells were harvested for assay of alkaline phosphatase and luciferase.
as §1

Experiment [2] addresses T3, glucocorticoid receptor (GR) (Rattus norvegicus, UniProt P06536).
T3 construct: host or cells: T47D (A1-2)
T3 sequence (P06536 1-795): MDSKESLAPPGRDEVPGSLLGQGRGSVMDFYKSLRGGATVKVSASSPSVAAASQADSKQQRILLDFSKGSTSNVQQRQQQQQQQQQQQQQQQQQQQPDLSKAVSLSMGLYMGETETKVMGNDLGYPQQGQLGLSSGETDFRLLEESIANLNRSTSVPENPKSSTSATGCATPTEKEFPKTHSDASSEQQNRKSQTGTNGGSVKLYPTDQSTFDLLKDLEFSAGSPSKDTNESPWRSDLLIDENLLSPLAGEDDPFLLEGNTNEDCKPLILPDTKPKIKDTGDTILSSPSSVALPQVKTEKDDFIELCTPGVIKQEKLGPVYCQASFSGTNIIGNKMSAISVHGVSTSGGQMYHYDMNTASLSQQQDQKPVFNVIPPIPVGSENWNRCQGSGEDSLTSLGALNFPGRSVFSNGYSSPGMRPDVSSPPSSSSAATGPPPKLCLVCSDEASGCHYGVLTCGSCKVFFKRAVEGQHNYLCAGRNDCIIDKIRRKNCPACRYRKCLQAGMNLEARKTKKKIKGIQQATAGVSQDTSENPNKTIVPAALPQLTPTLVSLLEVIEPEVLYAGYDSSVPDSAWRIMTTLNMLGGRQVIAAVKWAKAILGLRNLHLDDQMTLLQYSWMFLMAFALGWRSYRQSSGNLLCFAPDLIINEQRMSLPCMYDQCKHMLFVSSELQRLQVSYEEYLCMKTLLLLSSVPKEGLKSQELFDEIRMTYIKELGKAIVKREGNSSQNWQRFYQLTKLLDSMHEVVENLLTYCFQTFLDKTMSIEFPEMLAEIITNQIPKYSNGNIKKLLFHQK
Put plainly: GR-mediated induction of transcription by dexamethasone in T47D (A1-2) cells (luciferase reporter and endogenous alkaline phosphatase). In kind it is cell-based, human. The note with it: T47D, dexamethasone 1.0 nM, read-out: % Inhibition of GR Induction.
Description: as §2
For assessment of the effect of flavones on glucocorticoid receptors, T47D (A1-2) cells were maintained in Minimal Essential Medium, 10% Fetal Bovine Serum (FBS), 0.2 mg/mL G418, penicillin (100 U/mL), and streptomycin (100 μg/mL). For experiments, medium was removed, and cultures rinsed with Phosphate-Buffered Saline (PBS) + 1.0 mM EDTA (PBSE), detached with trypsin, pelleted, and resuspended in medium to a concentration of 500,000 cells/mL. Aliquots of cell suspension, 100 microliters/well, were transferred into a 96-well, white, flat-bottomed plate and allowed to attach for 24 h. The following day, each well was treated with a 50 microliter aliquot of a test compound diluted in medium. Controls received medium containing DMSO diluted in the same way. For hormone treatment, dexamethasone was diluted in medium and added as 50 microliter aliquots so that the final volume in each well was 200 microliters. The final concentration of dexamethasone was 1.0 nM. Controls received medium without hormone. Hormone treatment was for 20 h at which time cells were harvested for assay of alkaline phosphatase and luciferase.
as §1

As to `O=c1c(O)c(-c2ccc(O)cc2)oc2ccccc12` [3,4′-dihydroxyflavone], the “% ER Induction” value in the experiment with estrogen receptor (ER) (1 µM) was found to be 13%; in the experiment on estrogen receptor (ER) (4 µM), 125%. In addition, the inhibition at 1 µM at human AR (1 µM, R1881 1.0 nM) amounted to 3%. Moreover, the inhibition at 4 µM at human AR (4 µM, R1881 1.0 nM) stood at 27%.
In the case of `O=c1c(O)c(-c2ccc(O)c(O)c2)oc2cc(O)cc(O)c12` [3,5,7,3′,4′-pentahydroxyflavone], the inhibition at 4 µM was found to be 52% in experiment [1] (AP (alkaline phosphatase)) and 47% in experiment [1] (LUC (luciferase)). In addition, the inhibition at 8 µM in experiment [1] (AP (alkaline phosphatase)) turned out to be 79%; in experiment [1] (LUC (luciferase)) it was 78%. Besides, the results for the “% ER Induction” value in the experiment on estrogen receptor (ER) (1 µM) and in the experiment on estrogen receptor (ER) (4 µM) were 3% and 12%, respectively.
On to `O=c1c(O)c(-c2ccccc2)oc2ccc(O)cc12` [3,6-dihydroxyflavone], for which the “% ER Induction” value with estrogen receptor (ER) (1 µM) came out at 55%; in the experiment on estrogen receptor (ER) (4 µM), 94%. Besides, on human AR (1 µM, R1881 1.0 nM), the inhibition at 1 µM turned out to be 35%. Also, the inhibition at 4 µM at human AR (4 µM, R1881 1.0 nM) turned out to be 52%.
The matching figures for `O=c1c(O)c(-c2ccc(O)cc2)oc2cc(O)ccc12` [3,7,4′-trihydroxyflavone]: 86%, 114%, -6% and 39%.
For `COc1ccc(-c2oc3ccc(OC)cc3c(=O)c2O)cc1` [3-hydroxy, 6,4′-dimethoxyflavone], in that order: 2%, 3%, -17% and 41%.
Regarding `O=C1CC(c2ccc(O)cc2)Oc2ccccc21` (stereo not shown) [4′-hydroxyflavanone], the results for the “% ER Induction” value in the experiment with estrogen receptor (ER) (1 µM) and in the experiment on estrogen receptor (ER) (4 µM) were 12% and 109%, respectively. Besides, the inhibition at 1 µM on human AR was -8%. In addition, at human AR, the inhibition at 4 µM came out at 0%.
For the compound `COc1ccc(-c2cc(=O)c3c(OC)cccc3o2)cc1` [5,4′-methoxyflavone], the “% ER Induction” value with estrogen receptor (ER) (1 µM) turned out to be 1%; in the experiment with estrogen receptor (ER) (4 µM), 31%. Also, the “% Inhibition of AR-Mediated Gene Induction” value on human AR (1 µM, R1881 1.0 nM) is 4%; at human AR (4 µM, R1881 1.0 nM) it was 53%.
As to `O=c1cc(-c2ccc(O)cc2)oc2cc(O)cc(O)c12` [5,7,4′-trihydroxyflavone], the inhibition at 4 µM in experiment [2] (AP (alkaline phosphatase)) was -19%; in experiment [2] (LUC (luciferase)) it was 6%. Besides, the inhibition at 8 µM in experiment [2] (AP (alkaline phosphatase)) came to 49%; in experiment [2] (LUC (luciferase)), 35%.
Take `O=c1cc(-c2ccccc2)oc2cccc(O)c12` [5-hydroxyflavone]: the inhibition at 4 µM in experiment [2] (AP (alkaline phosphatase)) was 38%; in experiment [2] (LUC (luciferase)) it was -9%; in experiment [1] (AP (alkaline phosphatase)) it was 26%; in experiment [1] (LUC (luciferase)) it was -23%. Besides, the inhibition at 8 µM in experiment [2] (AP (alkaline phosphatase)) is 12%; in experiment [2] (LUC (luciferase)) it was -30%; in experiment [1] (AP (alkaline phosphatase)) it was 61%; in experiment [1] (LUC (luciferase)) it was 45%. The “% ER Induction” value in the experiment on estrogen receptor (ER) (1 µM) is reported as 0%; in the experiment on estrogen receptor (ER) (4 µM), 4%.
For the compound `C[C@]12CC[C@@H]3c4ccc(O)cc4CC[C@H]3[C@@H]1CC[C@@H]2O` [17β-estradiol], the “potency relative to the 6,4′-dihydroxyflavones” value in the experiment on estrogen receptor (ER) (in the assays used here) is “over 1000 fold”.
Turning to `Cc1c(-c2ccc(O)cc2)oc2ccc(O)cc2c1=O` [compound 8, 3-methyl 6,4′-dihydroxyflavone], the “increase of EC50 relative to 6,4′-dihydroxyflavone” value with estrogen receptor (ER) is “ten-fold or more”. Further, the “reporter gene activity compared with an optimal dose of estradiol” value with estrogen receptor (ER) (1.0 micromolar) is listed as “super-inducer”.
As to `O=c1c(F)c(-c2ccc(O)cc2)oc2ccc(O)cc12` [compound 14, 3-fluoro, 6,4′-dihydroxyflavone], the “EC50 compared to that of genistein” value with estrogen receptor (ER) is given as “comparable”. Also, the pEC50 in the experiment on estrogen receptor (ER) (read-out: EC50, estrogen agonist) is ~7.52 and 7.00 to 7.52.
